Data taken from ChEMBL document CHEMBL1140422, “A new bisintercalating anthracycline with picomolar DNA binding affinity” (J Med Chem, 2005).

System: Jurkat
Experiment: Cytotoxicity against Jurkat T lymphocytes by MTT assay
Type: functional, cell-based
Details: Homo sapiens

`COc1cccc2c1C(=O)c1c(O)c3c(c(O)c1C2=O)C[C@@](O)(C(C)=O)C[C@@H]3O[C@H]1C[C@H](N)[C@H](O)[C@H](C)O1` [DAUNORUBICIN] was tested. Which IC50 did it give?
The IC50 was 82.6 nM.

What about the IC75 of the same compound?
The IC75 was 182 nM.

With `COc1cccc2c1C(=O)c1c(O)c3c(c(O)c1C2=O)C[C@@](O)(C(C)=O)C[C@@H]3O[C@H]1C[C@H](NCc2ccc(CN[C@@H]3C[C@@H](O[C@H]4C[C@](O)(C(C)=O)Cc5c(O)c6c(c(O)c54)C(=O)c4c(OC)cccc4C6=O)O[C@H](C)[C@@H]3O)cc2)[C@H](O)[C@H](C)O1` as the compound, how does the IC50 read?
The IC50 was 17.7 nM.

What about the IC75 of the same compound?
Its IC75 is 60 nM.

With `COc1cccc2c1C(=O)c1c(O)c3c(c(O)c1C2=O)C[C@@](O)(C(C)=O)C[C@@H]3O[C@H]1C[C@H](NCc2cccc(CN[C@@H]3C[C@@H](O[C@H]4C[C@](O)(C(C)=O)Cc5c(O)c6c(c(O)c54)C(=O)c4c(OC)cccc4C6=O)O[C@H](C)[C@@H]3O)c2)[C@H](O)[C@H](C)O1` as the compound, how does the IC50 read?
The IC50 was 17 nM.

What about the IC75 of the same compound?
Its IC75 is 53.5 nM.
